Results from patent US20080200454A1, “CARBON-LINKED TETRAHYDRO-PYRAZOLO-PYRIDINE MODULATORS OF CATHEPSIN S” (priority 2007, published 2008).
Where a name gives a salt, the structure may show the parent alone. Read-outs that look alike come from different tables or passages of the source.

Biological target: Recombinant human cathepsin S (CatS) (Homo sapiens, UniProt P25774)
Assay: Recombinant human cathepsin S (CatS) inhibition assay, fluorogenic substrate Z-Valine-Valine-Arginine-AMC;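 also: Baculovirus-expressed CatS in pH 5.0 sodium acetate buffer with DTT and NaCl, fluorescence read each minute over 20 min, inhibition derived from rate slope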

Recombinant human cathepsin S (CatS), sequence (P25774 115-331): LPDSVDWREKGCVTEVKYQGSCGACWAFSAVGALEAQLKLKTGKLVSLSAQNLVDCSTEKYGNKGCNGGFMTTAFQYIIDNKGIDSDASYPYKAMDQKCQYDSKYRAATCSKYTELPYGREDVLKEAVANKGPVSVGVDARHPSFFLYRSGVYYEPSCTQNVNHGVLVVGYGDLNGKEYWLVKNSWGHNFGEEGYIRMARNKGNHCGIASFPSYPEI

SMILES | IC50 [µM] | IC50 (CatS IC50) [µM]
CS(=O)(=O)N1CCc2c(c(-c3ccc(Cl)c(C#Cc4ccc(CNCc5ccc(Cl)cc5)cc4)c3)nn2CCCN2CCOCC2)C1 [Example 76, (4-Chloro-benzyl)-(4-{2-chloro-5-[5-methanesulfonyl-1-(3-morpholin-4-yl-propyl)-4,5,6,7-tetrahydro-1H-pyrazolo[4,3-c]pyridin-3-yl]-phenylethynyl}-benzyl)-amine] | 0.24 | –
CN(Cc1ccccc1)Cc1ccc(C#Cc2cc(-c3nn(CCCN4CCOCC4)c4c3CN(S(C)(=O)=O)CC4)ccc2Cl)cc1 [Example 77, Benzyl-(4-{2-chloro-5-[5-methanesulfonyl-1-(3-morpholin-4-yl-propyl)-4,5,6,7-tetrahydro-1H-pyrazolo[4,3-c]pyridin-3-yl]-phenylethynyl}-benzyl)-methyl-amine] | 0.64 | –
CS(=O)(=O)N1CCc2c(c(-c3ccc(Cl)c(C#Cc4ccc(CN5CCCC5)cc4)c3)nn2CCCN2CCOCC2)C1 [Example 78, 3-[4-Chloro-3-(4-pyrrolidin-1-ylmethyl-phenylethynyl)-phenyl]-5-methanesulfonyl-1-(3-morpholin-4-yl-propyl)-4,5,6,7-tetrahydro-1H-pyrazolo[4,3-c]pyridine] | – | 1.4
CS(=O)(=O)N1CCc2c(c(-c3ccc(Cl)c(C#Cc4ccc(CN5CCCCC5)cc4)c3)nn2CCCN2CCOCC2)C1 [Example 79, 3-[4-Chloro-3-(4-piperidin-1-ylmethyl-phenylethynyl)-phenyl]-5-methanesulfonyl-1-(3-morpholin-4-yl-propyl)-4,5,6,7-tetrahydro-1H-pyrazolo[4,3-c]pyridine] | – | 1.5
CS(=O)(=O)NCCCc1cc(-c2nn(CCCN3CCOCC3)c3c2CN(S(C)(=O)=O)CC3)ccc1Cl [Example 80, N-(3-{2-Chloro-5-[5-methanesulfonyl-1-(3-morpholin-4-yl-propyl)-4,5,6,7-tetrahydro-1H-pyrazolo[4,3-c]pyridin-3-yl]-phenyl}-propyl)-methanesulfonamide] | 9.93 | –
CS(=O)(=O)N1CCc2c(c(-c3ccc(Cl)c(CCCNS(=O)(=O)Cc4ccccc4)c3)nn2CCCN2CCOCC2)C1 [Example 81, N-(3-{2-Chloro-5-[5-methanesulfonyl-1-(3-morpholin-4-yl-propyl)-4,5,6,7-tetrahydro-1H-pyrazolo[4,3-c]pyridin-3-yl]-phenyl}-propyl)-C-phenyl-methanesulfonamide] | 5.47 | –
CS(=O)(=O)N1CCc2c(c(-c3ccc(Cl)c(CCCNS(=O)(=O)c4ccc(Cl)c(Cl)c4)c3)nn2CCCN2CCOCC2)C1 [Example 82, 3,4-Dichloro-N-(3-{2-chloro-5-[5-methanesulfonyl-1-(3-morpholin-4-yl-propyl)-4,5,6,7-tetrahydro-1H-pyrazolo[4,3-c]pyridin-3-yl]-phenyl}-propyl)-benzenesulfonamide] | 6.1 | –
CS(=O)(=O)N1CCc2c(c(-c3ccc(Cl)c(CCCNS(=O)(=O)c4ccc(Cl)cc4)c3)nn2CCCN2CCOCC2)C1 [Example 83, 4-Chloro-N-(3-{2-chloro-5-[5-methanesulfonyl-1-(3-morpholin-4-yl-propyl)-4,5,6,7-tetrahydro-1H-pyrazolo[4,3-c]pyridin-3-yl]-phenyl}-propyl)-benzenesulfonamide] | 7.1 | –
Cc1ccc(S(=O)(=O)NCCCc2cc(-c3nn(CCCN4CCOCC4)c4c3CN(S(C)(=O)=O)CC4)ccc2Cl)cc1 [Example 84, N-(3-{2-Chloro-5-[5-methanesulfonyl-1-(3-morpholin-4-yl-propyl)-4,5,6,7-tetrahydro-1H-pyrazolo[4,3-c]pyridin-3-yl]-phenyl}-propyl)-4-methyl-benzenesulfonamide] | 8.1 | –
COc1ccc(S(=O)(=O)NCCCc2cc(-c3nn(CCCN4CCOCC4)c4c3CN(S(C)(=O)=O)CC4)ccc2Cl)cc1 [Example 85, N-(3-{2-Chloro-5-[5-methanesulfonyl-1-(3-morpholin-4-yl-propyl)-4,5,6,7-tetrahydro-1H-pyrazolo[4,3-c]pyridin-3-yl]-phenyl}-propyl)-4-methoxy-benzenesulfonamide] | 8.93 | –
CN(C)S(=O)(=O)NCCCc1cc(-c2nn(CCCN3CCOCC3)c3c2CN(S(C)(=O)=O)CC3)ccc1Cl [Example 86] | 13 | –
CC(=O)NCCCc1cc(-c2nn(CCCN3CCOCC3)c3c2CN(S(C)(=O)=O)CC3)ccc1Cl [Example 87, N-(3-{2-Chloro-5-[5-methanesulfonyl-1-(3-morpholin-4-yl-propyl)-4,5,6,7-tetrahydro-1H-pyrazolo[4,3-c]pyridin-3-yl]-phenyl}-propyl)-acetamide] | 11.4 | –
CS(=O)(=O)N1CCc2c(c(-c3ccc(Cl)c(CCCNS(=O)(=O)c4ccccc4C(=O)O)c3)nn2CCCN2CCC(N3CCCC3=O)CC2)C1 [Example 88, 2-{3-[2-Chloro-5-(5-methanesulfonyl-1-{3-[4-(2-oxo-pyrrolidin-1-yl)-piperidin-1-yl]-propyl}-4,5,6,7-tetrahydro-1H-pyrazolo[4,3-c]pyridin-3-yl)-phenyl]-propylsulfamoyl}-benzoic acid, trifluoroacetic acid salt] | 0.52 | –
CS(=O)(=O)N1CCc2c(c(-c3ccc(Cl)c(CCCNS(=O)(=O)c4ccccc4[N+](=O)[O-])c3)nn2CCCN2CCC(N3CCCC3=O)CC2)C1 [Example 89, N-{3-[2-Chloro-5-(5-methanesulfonyl-1-{3-[4-(2-oxo-pyrrolidin-1-yl)-piperidin-1-yl]-propyl}-4,5,6,7-tetrahydro-1H-pyrazolo[4,3-c]pyridin-3-yl)-phenyl]-propyl}-2-nitro-benzenesulfonamide] | 0.29 | –
CS(=O)(=O)N1CCc2c(c(-c3ccc(Cl)c(CCCNS(=O)(=O)c4cccc(Cl)c4)c3)nn2CCCN2CCC(N3CCCC3=O)CC2)C1 [Example 90, 3-Chloro-N-{3-[2-chloro-5-(5-methanesulfonyl-1-{3-[4-(2-oxo-pyrrolidin-1-yl)-piperidin-1-yl]-propyl}-4,5,6,7-tetrahydro-1H-pyrazolo[4,3-c]pyridin-3-yl)-phenyl]-propyl}-benzenesulfonamide] | 0.42 | –
CS(=O)(=O)N1CCc2c(c(-c3ccc(Cl)c(CCCNS(=O)(=O)c4ccccc4)c3)nn2CCCN2CCC(N3CCCC3=O)CC2)C1 [Example 91, N-{3-[2-Chloro-5-(5-methanesulfonyl-1-{3-[4-(2-oxo-pyrrolidin-1-yl)-piperidin-1-yl]-propyl}-4,5,6,7-tetrahydro-1H-pyrazolo[4,3-c]pyridin-3-yl)-phenyl]-propyl}-benzenesulfonamide] | 0.94 | –
Cc1ccc(S(=O)(=O)NCCCc2cc(-c3nn(CCCN4CCC(N5CCCC5=O)CC4)c4c3CN(S(C)(=O)=O)CC4)ccc2Cl)cc1 [Example 92, N-{3-[2-Chloro-5-(5-methanesulfonyl-1-{3-[4-(2-oxo-pyrrolidin-1-yl)-piperidin-1-yl]-propyl}-4,5,6,7-tetrahydro-1H-pyrazolo[4,3-c]pyridin-3-yl)-phenyl]-propyl}-4-methyl-benzenesulfonamide] | 1.04 | –
COc1cccc(S(=O)(=O)NCCCc2cc(-c3nn(CCCN4CCC(N5CCCC5=O)CC4)c4c3CN(S(C)(=O)=O)CC4)ccc2Cl)c1 [Example 93, N-{3-[2-Chloro-5-(5-methanesulfonyl-1-{3-[4-(2-oxo-pyrrolidin-1-yl)-piperidin-1-yl]-propyl}-4,5,6,7-tetrahydro-1H-pyrazolo[4,3-c]pyridin-3-yl)-phenyl]-propyl}-3-methoxy-benzenesulfonamide] | 1.05 | –
Cc1ccccc1S(=O)(=O)NCCCc1cc(-c2nn(CCCN3CCC(N4CCCC4=O)CC3)c3c2CN(S(C)(=O)=O)CC3)ccc1Cl [Example 94, N-{3-[2-Chloro-5-(5-methanesulfonyl-1-{3-[4-(2-oxo-pyrrolidin-1-yl)-piperidin-1-yl]-propyl}-4,5,6,7-tetrahydro-1H-pyrazolo[4,3-c]pyridin-3-yl)-phenyl]-propyl}-2-methyl-benzenesulfonamide] | 1.1 | –
CS(=O)(=O)N1CCc2c(c(-c3ccc(Cl)c(CCCNS(=O)(=O)c4ccccc4Cl)c3)nn2CCCN2CCC(N3CCCC3=O)CC2)C1 [Example 95, 2-Chloro-N-{3-[2-chloro-5-(5-methanesulfonyl-1-{3-[4-(2-oxo-pyrrolidin-1-yl)-piperidin-1-yl]-propyl}-4,5,6,7-tetrahydro-1H-pyrazolo[4,3-c]pyridin-3-yl)-phenyl]-propyl}-benzenesulfonamide] | 1.15 | –
CS(=O)(=O)N1CCc2c(c(-c3ccc(Cl)c(CCCNS(=O)(=O)c4cccc([N+](=O)[O-])c4)c3)nn2CCCN2CCC(N3CCCC3=O)CC2)C1 [Example 96, N-{3-[2-Chloro-5-(5-methanesulfonyl-1-{3-[4-(2-oxo-pyrrolidin-1-yl)-piperidin-1-yl]-propyl}-4,5,6,7-tetrahydro-1H-pyrazolo[4,3-c]pyridin-3-yl)-phenyl]-propyl}-3-nitro-benzenesulfonamide] | 1.2 | –
Cc1cccc(S(=O)(=O)NCCCc2cc(-c3nn(CCCN4CCC(N5CCCC5=O)CC4)c4c3CN(S(C)(=O)=O)CC4)ccc2Cl)c1 [Example 97, N-{3-[2-Chloro-5-(5-methanesulfonyl-1-{3-[4-(2-oxo-pyrrolidin-1-yl)-piperidin-1-yl]-propyl}-4,5,6,7-tetrahydro-1H-pyrazolo[4,3-c]pyridin-3-yl)-phenyl]-propyl}-3-methyl-benzenesulfonamide] | 1.31 | –
CS(=O)(=O)N1CCc2c(c(-c3ccc(Cl)c(CCCNS(=O)(=O)c4cccc(C#N)c4)c3)nn2CCCN2CCC(N3CCCC3=O)CC2)C1 [Example 98, N-{3-[2-Chloro-5-(5-methanesulfonyl-1-{3-[4-(2-oxo-pyrrolidin-1-yl)-piperidin-1-yl]-propyl}-4,5,6,7-tetrahydro-1H-pyrazolo[4,3-c]pyridin-3-yl)-phenyl]-propyl}-3-cyano-benzenesulfonamide] | 1.41 | –
CS(=O)(=O)c1cccc(S(=O)(=O)NCCCc2cc(-c3nn(CCCN4CCC(N5CCCC5=O)CC4)c4c3CN(S(C)(=O)=O)CC4)ccc2Cl)c1 [Example 99, N-{3-[2-Chloro-5-(5-methanesulfonyl-1-{3-[4-(2-oxo-pyrrolidin-1-yl)-piperidin-1-yl]-propyl}-4,5,6,7-tetrahydro-1H-pyrazolo[4,3-c]pyridin-3-yl)-phenyl]-propyl}-3-methanesulfonyl-benzenesulfonamide] | 2.45 | –
